Reference: paper PMC9714921 (PLOS Pathogens, 2022)
Values joined by “and” are separate entries in the source; they are usually repeats but may differ in a detail not shown here. Equal values may be shown once.

How the values were obtained:
P. equorum N-AChR = conditions: read-out: EC50 μM ACh; accessory protein Ric-3; ref [40]; cited from earlier work
Gpu-ACR-16 = test: Voltage-clamp electrophysiology, N-AChR reconstituted in Xenopus laevis oocytes; format: cell-based, Gonglyonema pulchrum
Protocol: (§1) cRNA for oocyte injection was prepared with the mMESSAGE mMACHINE T7 kit following manufacturers protocol (Ambion, USA). Concentration was determined using a Nanodrop spectrophotometer. Desired subunit combinations with associated accessory proteins were mixed and diluted with nuclease-free water to a final concentration of 250 ng/uL for each construct.
(§2) Adult female X. laevis oocyte extraction was performed in accordance with the McGill University Animal Use Protocol 2015–7758 following standard protocol. Briefly, frog ovary lobes were placed in a Ca^2+-free OR2 solution (82 mM NaCl, 2 mM KCl, 1 mM MgCl2, 5 mM HEPES buffer, pH 7.3) and manually divided into clusters of <10 oocytes with thin tweezers followed by a 90-minute incubation in 10 mg/mL collagenase type II (Sigma-Aldrich, USA). Oocytes were washed in Ca^2+-free OR2 and placed ND96 solution (NaCl 96 mM, KCl 2 mM, CaCl2 1.8 mM, MgCl2 1 mM and HEPES 5 mM, pH 7.3) supplemented with sodium pyruvate 2.5 mM [86] and incubated at 18°C until cRNA injection. Oocytes were injected with 50 nL (12.5 ng of each injected gene) of the desired cRNA subunit and accessory protein combination mix with the NanojectII (Drummond Scientific, USA). Following injection, oocytes were incubated in ND96 buffer at 18°C until electrophysiology. All electrophysiology was conducted two days post-injection, except for the expression analysis assay in which oocytes were measured every day after injection for three consecutive days.
(§3) All drugs were dissolved in recording solution (NaCl 100 mM, KCl 2.5 mM, CaCl2 1 mM, HEPES 5 mM, pH 7.3) to a stock concentration of 10 mM and diluted to their final recording concentrations. Oxantel and bephenium were first dissolved in DMSO to ensure a final recording concentration contained less than 0.1% DMSO. For agonist profiling, all drugs were diluted to a concentration of 100 μM.
(§4) Oocytes were placed individually in an RC3Z chamber (Harvard Apparatus, USA) submerged in recording solution (NaCl 100 mM, KCl 2.5 mM, CaCl2 1 mM, HEPES 5 mM, pH 7.3). The RC3Z chamber was connected to a perfusion system containing recording solution and ligand solutions. Pulled glass capillaries (World Precision Instruments, USA) were filled with 3M KCl and the tips clipped and checked for appropriate resistance (between 0.5 and 5 MΩ). A 3M KCl agar bridge grounded the oocyte bath chamber. Measurements were made using an Axon Axoclamp 900A amplifier with Digidata1550M. […] Ligand solutions were applied to the oocytes with an approximate flow rate of 1.2 m/s and current responses measured. Oocytes were exposed to the ligand solution until a distinct current peak was observed followed by a wash with the recording solution until current returned to baseline for a minimum of 10 seconds until the next ligand exposure. For BAPTA-AM exposed oocytes, oocytes were incubated in 100 μM BAPTA-AM for four hours prior to electrophysiology recording. Data was analyzed using Clampex 9.2 (Axon Instruments, USA) and statistical analysis and graphs produced in Prism (GraphPad version 9.1). T-tests were used to compare responses with error bars representing standard error. For concentration-response curves, individual oocyte current response to the different ligand concentrations were normalized to the response obtained with 300 μM. Data was fit using the Graphpad “log(agonist) vs normalized response–variable slope” equation, with 95% confidence intervals being reported. […] For examples of oocyte responses, recordings were filtered in Clampfit using the lowband pass at 40 Hz cutoff.

Dme-ACR-16 = Dme-ACR-16 (Dracunculus medinensis, UniProt A0A0N4U0T6); test: cell-based; format: cell-based
Protocol: as §1, §2, §3, §4

Asu-ACR-16 = Asu-ACR-16 (Ascaris suum, UniProt F1KYJ9); test: cell-based; format: cell-based
Protocol: as §1, §2, §3, §4

Tzc-ACR-16 = Tzc-ACR-16 (Thelazia callipaeda, UniProt A0A158RD20); test: cell-based; format: cell-based
Protocol: as §1, §2, §3, §4

[1] = No accessory protein, listed as acetylcholine
[2] = co-injected: Bma-ric-3 (reference condition)
[3] = co-injected: Bma-ric-3 (reference condition), listed as acetylcholine
[4] = co-injected: Bma-ric-3 + Bma-eat-18
[5] = co-injected: Bma-ric-3 + Bma-molo-1
[6] = co-injected: Bma-ric-3 + Bma-unc-50 + Bma-unc-74
[7] = co-injected: Bma-ric-3 + Bma-unc-50 + Bma-unc-74 + Bma-eat-18
[8] = co-injected: Bma-ric-3 + Cel-emc-6
[9] = co-injected: Bma-ric-3 + Cel-nra-2 + Cel-nra-4
[10] = co-injected: Bma-ric-3 + Cel-nra-2 + Cel-nra-4, listed as acetylcholine
[11] = co-injected: Hco-ric-3, listed as acetylcholine

Asu-ACR-16, sequence (F1KYJ9 entry or part of it): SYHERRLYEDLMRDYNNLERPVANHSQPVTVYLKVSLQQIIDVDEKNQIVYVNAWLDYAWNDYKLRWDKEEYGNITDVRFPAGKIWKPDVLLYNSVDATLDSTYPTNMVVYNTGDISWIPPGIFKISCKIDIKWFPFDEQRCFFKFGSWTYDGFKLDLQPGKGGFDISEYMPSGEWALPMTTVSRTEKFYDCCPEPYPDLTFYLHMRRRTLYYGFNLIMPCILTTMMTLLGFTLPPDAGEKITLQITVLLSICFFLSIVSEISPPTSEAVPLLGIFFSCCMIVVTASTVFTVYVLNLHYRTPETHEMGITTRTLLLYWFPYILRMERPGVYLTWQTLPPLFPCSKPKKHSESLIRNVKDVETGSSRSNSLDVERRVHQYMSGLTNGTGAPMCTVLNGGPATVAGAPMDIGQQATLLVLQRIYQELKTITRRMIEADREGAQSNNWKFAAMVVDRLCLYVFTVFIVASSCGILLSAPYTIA
Tzc-ACR-16, sequence (A0A158RD20 entry or part of it): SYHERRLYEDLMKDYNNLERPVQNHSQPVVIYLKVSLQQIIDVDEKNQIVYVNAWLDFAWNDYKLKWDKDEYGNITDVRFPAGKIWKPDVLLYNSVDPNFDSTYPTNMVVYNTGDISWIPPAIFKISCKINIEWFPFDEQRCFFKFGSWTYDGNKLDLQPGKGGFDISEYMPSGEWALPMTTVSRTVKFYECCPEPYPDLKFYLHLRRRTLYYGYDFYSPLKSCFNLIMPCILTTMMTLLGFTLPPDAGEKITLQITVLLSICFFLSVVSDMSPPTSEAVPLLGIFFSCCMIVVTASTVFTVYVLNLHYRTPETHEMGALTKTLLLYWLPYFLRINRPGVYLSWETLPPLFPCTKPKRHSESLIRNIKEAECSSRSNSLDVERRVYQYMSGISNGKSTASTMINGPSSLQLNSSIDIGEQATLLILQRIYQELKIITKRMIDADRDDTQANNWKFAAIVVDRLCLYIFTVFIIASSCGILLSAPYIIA
Dme-ACR-16, sequence (A0A0N4U0T6 entry or part of it): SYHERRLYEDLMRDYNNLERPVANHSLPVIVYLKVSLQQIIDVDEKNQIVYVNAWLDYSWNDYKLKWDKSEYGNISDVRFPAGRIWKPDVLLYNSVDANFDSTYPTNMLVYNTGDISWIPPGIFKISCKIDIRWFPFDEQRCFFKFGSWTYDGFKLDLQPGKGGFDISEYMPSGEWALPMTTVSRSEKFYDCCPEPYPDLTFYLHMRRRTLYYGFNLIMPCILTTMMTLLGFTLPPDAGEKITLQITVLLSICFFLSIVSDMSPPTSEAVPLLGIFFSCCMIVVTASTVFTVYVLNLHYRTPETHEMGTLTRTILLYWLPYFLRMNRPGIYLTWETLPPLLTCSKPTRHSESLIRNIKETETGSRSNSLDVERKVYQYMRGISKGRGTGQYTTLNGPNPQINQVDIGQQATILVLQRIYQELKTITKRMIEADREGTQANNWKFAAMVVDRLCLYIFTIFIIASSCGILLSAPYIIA

For `CC(=O)OCC[N+](C)(C)C` [ACh, acetylcholine], the EC50 (P. equorum N-AChR) is given as 6.4 ± 0.6 µM, the “response to 100 μM acetylcholine normalized to Day 3 response” value (Gpu-ACR-16; Day 1 post-injection) is given as 19 ± 6% and the “response to 100 μM acetylcholine normalized to Day 3 response” value (Gpu-ACR-16; Day 2 post-injection) is given as 76 ± 6%. The “current response to 100 μM acetylcholine” value (Gpu-ACR-16; No accessory protein) was 0 ± 0 nA, the “current response to 100 μM acetylcholine” value (Gpu-ACR-16; [1]) was 0 ± 0 (n=14) nA and the “current response to 100 μM acetylcholine” value (Gpu-ACR-16; [2]) was 1281 ± 197 nA. For the same molecule, the “current response to 100 μM acetylcholine” value (Gpu-ACR-16; [3]) was 1281 ± 197 (n=8) nA, the “current response to 100 μM acetylcholine” value (Gpu-ACR-16; [4]) was 1264 ± 177 (n=10) ns nA and the “current response to 100 μM acetylcholine” value (Gpu-ACR-16; [5]) was 1049 ± 77 (n=16) ns nA. For the same molecule, the “current response to 100 μM acetylcholine” value (Gpu-ACR-16; [6]) was 847 ± 124 (n=14) ns nA, the “current response to 100 μM acetylcholine” value (Gpu-ACR-16; [7]) was 1854 ± 83 nA and the “current response to 100 μM acetylcholine” value (Gpu-ACR-16; co-injected: Bma-ric-3 + Bma-unc-50 + Bma-unc-74 + Bma-eat-18, listed as acetylcholine) was 1854 ± 83 (n=14) nA. The “current response to 100 μM acetylcholine” value (Gpu-ACR-16; [8]) was 1628 ± 123 (n=17) ns nA, the “current response to 100 μM acetylcholine” value (Gpu-ACR-16; [9]) was 2553 ± 123 nA and the “current response to 100 μM acetylcholine” value (Gpu-ACR-16; [10]) was 2553 ±123 (n=12) nA. For the same molecule, the “current response to 100 μM acetylcholine” value (Gpu-ACR-16; co-injected: Hco-ric-3) was ~ 1400 nA, the “current response to 100 μM acetylcholine” value (Gpu-ACR-16; [11]) was 1403 ± 91 nA and 1403 ± 91 (n=14) ns nA and the EC50 (Gpu-ACR-16; read-out: EC50 ACh, concentration-response 0.3-300 μM, normalized to 300 μM, with 95% CI) was 10.5 µM. For the same molecule, the EC50 (Dme-ACR-16) was 12.8 µM, the “response to 100 μM acetylcholine normalized to Day 3 response” value (Dme-ACR-16; Day 1 post-injection) was 49 ± 7% and the “response to 100 μM acetylcholine normalized to Day 3 response” value (Dme-ACR-16; Day 2 post-injection) was 102 ± 7%. The “current response to 100 μM acetylcholine” value (Dme-ACR-16; No accessory protein) was 1290 ± 70 nA, the “current response to 100 μM acetylcholine” value (Dme-ACR-16; [1]) was 1290 ± 70 (n=17) nA and the “current response to 100 μM acetylcholine” value (Dme-ACR-16; [4]) was 2649 ± 112 (n=11) ns nA. The “current response to 100 μM acetylcholine” value (Dme-ACR-16; [5]) was 2354 ± 108 (n=13) ns nA, the “current response to 100 μM acetylcholine” value (Dme-ACR-16; [6]) was 2368 ± 105 (n=13) ns nA and the “current response to 100 μM acetylcholine” value (Dme-ACR-16; [7]) was 2222 ± 62 (n=15) ns nA. For the same molecule, the “current response to 100 μM acetylcholine” value (Dme-ACR-16; [8]) was 2183 ± 87 (n=11) ns nA, the “current response to 100 μM acetylcholine” value (Dme-ACR-16; [9]) was 2425 ± 133 (n=12) ns nA and the “current response to 100 μM acetylcholine” value (Dme-ACR-16; co-injected: Hco-ric-3) was 2000–2200 nA. The “current response to 100 μM acetylcholine” value (Dme-ACR-16; [11]) was 2150 ± 59 nA and 2150 ± 59 (n=15) ns nA, the “response to 100 μM acetylcholine normalized to Day 3 response” value (Asu-ACR-16; Day 1 post-injection) was 44 ± 5% and the “response to 100 μM acetylcholine normalized to Day 3 response” value (Asu-ACR-16; Day 2 post-injection) was 88 ± 5%. For the same molecule, the “current response to 100 μM acetylcholine” value (Asu-ACR-16; No accessory protein) was 24 ± 10 nA, the “current response to 100 μM acetylcholine” value (Asu-ACR-16; [1]) was 24 ± 10 (n=11) nA and the “current response to 100 μM acetylcholine” value (Asu-ACR-16; [2]) was 2023 ± 68 nA. The “current response to 100 μM acetylcholine” value (Asu-ACR-16; [3]) was 2023 ± 68 (n=11) nA, the “current response to 100 μM acetylcholine” value (Asu-ACR-16; [4]) was 3152 ± 102 (n=13) nA and the “current response to 100 μM acetylcholine” value (Asu-ACR-16; [5]) was 1425 ± 55 (n=15) nA. The “current response to 100 μM acetylcholine” value (Asu-ACR-16; [6]) was 2606 ± 183 (n=10) nA, the “current response to 100 μM acetylcholine” value (Asu-ACR-16; [7]) was 2166 ± 87 (n=12) ns nA and the “current response to 100 μM acetylcholine” value (Asu-ACR-16; [8]) was 2582 ± 89 (n=12) nA. The “current response to 100 μM acetylcholine” value (Asu-ACR-16; [9]) was 2849 ± 152 (n=14) nA, the “current response to 100 μM acetylcholine” value (Asu-ACR-16; co-injected: Hco-ric-3) was 2000–2200 nA and 2052 ± 70 nA and the “current response to 100 μM acetylcholine” value (Asu-ACR-16; [11]) was 2052 ± 66 nA and 2052 ± 66 (n=13) ns nA. The EC50 (Tzc-ACR-16) was 17.4 µM, the “response to 100 μM acetylcholine normalized to Day 3 response” value (Tzc-ACR-16; Day 1 post-injection) was 7 ± 1% and the “response to 100 μM acetylcholine normalized to Day 3 response” value (Tzc-ACR-16; Day 2 post-injection) was 47 ± 12%. For the same molecule, the “current response to 100 μM acetylcholine” value (Tzc-ACR-16; No accessory protein) was 0 ± 0 nA, the “current response to 100 μM acetylcholine” value (Tzc-ACR-16; [1]) was 0 ± 0 (n=15) nA and the “current response to 100 μM acetylcholine” value (Tzc-ACR-16; [2]) was 818 ± 112 nA. The “current response to 100 μM acetylcholine” value (Tzc-ACR-16; [3]) was 818 ± 112 (n=13) nA, the “current response to 100 μM acetylcholine” value (Tzc-ACR-16; [4]) was 791 ± 119 (n=8) ns nA and the “current response to 100 μM acetylcholine” value (Tzc-ACR-16; [5]) was 660 ± 76 (n=15) ns nA. The “current response to 100 μM acetylcholine” value (Tzc-ACR-16; [6]) was 367 ± 43 nA, the “current response to 100 μM acetylcholine” value (Tzc-ACR-16; [7]) was 964 ± 101 (n=15) ns nA and the “current response to 100 μM acetylcholine” value (Tzc-ACR-16; co-injected: Bma-ric-3 + Bma-unc-50 + Bma-unc-74, listed as acetylcholine) was 367 ± 43 (n=15) nA. For the same molecule, the “current response to 100 μM acetylcholine” value (Tzc-ACR-16; [8]) was 720 ± 70 (n=13) ns nA, the “current response to 100 μM acetylcholine” value (Tzc-ACR-16; [9]) was 1263 ± 88 nA and the “current response to 100 μM acetylcholine” value (Tzc-ACR-16; [10]) was 1263 ± 88 (n=15) nA. For the same molecule, the “current response to 100 μM acetylcholine” value (Tzc-ACR-16; co-injected: Hco-ric-3) was 400–600 nA and the “current response to 100 μM acetylcholine” value (Tzc-ACR-16; [11]) was 563 ± 39 nA and 563 ± 39 (n=13) nA.
